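1) Cells in 96-well plates. 2) Compound, 48 h, 5 concentrations. 3) Linear interpolation between surrounding doses. 4) Unreached endpoint = highest concentration. GI50 = concentration required for 50% inhibition of growth.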 Active and inactive are the calls of the source. No stated cut-off is given here; in the data, active = GI50 up to about 1.1 µM and inactive = higher.
Columns and labels:
Experiment in all cases: DTP human tumour cell line panel, 48 h
K562 = system: K562
SF-539 = system: SF-539
SF-268 = system: SF-268
CAKI-1 = system: CAKI-1
786-0 = system: 786-0
M19-MEL = system: M19-MEL
UO-31 = system: UO-31
COLO 205 = system: COLO 205
SNB-78 = system: SNB-78
IGROV-1 = system: IGROV-1
SK-MEL-28 = system: SK-MEL-28
MOLT-4 = system: MOLT-4
UACC-257 = system: UACC-257
DLD-1 = system: DLD-1
SNB-75 = system: SNB-75
HT-29 = system: HT-29
HL-60 = system: HL-60

Measured: GI50

COC(=O)C(=O)C(C(=O)C(=O)Nc1ccccc1C(N)=O)c1nc2ccc([N+](=O)[O-])cc2nc1O (configuration not stated)
inactive: K562 > 100 µM | SF-539 > 100 µM | SF-268 > 100 µM | CAKI-1 > 100 µM | 786-0 > 100 µM | M19-MEL > 100 µM | UO-31 > 100 µM | COLO 205 > 100 µM | SNB-78 > 100 µM | IGROV-1 > 100 µM | SK-MEL-28 > 100 µM | MOLT-4 > 100 µM | UACC-257 > 100 µM | DLD-1 > 100 µM | SNB-75 > 100 µM | HT-29 > 100 µM | HL-60 > 100 µM

C=CCn1cc(C(=O)NC(=O)NCCCCCOC(=O)CCCCCCCCCCC(=O)OCCCCCNC(=O)NC(=O)c2cn(CC=C)c(=O)n(C)c2=O)c(=O)n(C)c1=O
inactive: K562 > 100 µM | SF-539 > 100 µM | SF-268 > 100 µM | CAKI-1 > 100 µM | 786-0 > 100 µM | M19-MEL > 100 µM | UO-31 > 100 µM | COLO 205 > 100 µM | SNB-78 > 100 µM | IGROV-1 > 100 µM | SK-MEL-28 > 100 µM | MOLT-4 > 100 µM | UACC-257 > 100 µM | DLD-1 > 100 µM | SNB-75 > 100 µM | HT-29 > 100 µM | HL-60 > 100 µM

Cc1ccccc1-n1c(C)nc(-c2ccccc2)cc1=O
inactive: K562 > 100 µM | SF-539 > 100 µM | SF-268 > 100 µM | CAKI-1 > 100 µM | 786-0 > 100 µM | M19-MEL > 100 µM | UO-31 > 100 µM | COLO 205 > 100 µM | SNB-78 > 100 µM | IGROV-1 > 100 µM | SK-MEL-28 > 100 µM | MOLT-4 > 100 µM | UACC-257 > 100 µM | DLD-1 > 100 µM | SNB-75 37.7 µM | HT-29 > 100 µM | HL-60 > 100 µM

CCCCCCCCCCCCCCCCCc1nnc(N)o1
inactive: K562 > 100 µM | SF-539 > 100 µM | SF-268 > 100 µM | CAKI-1 > 100 µM | 786-0 > 100 µM | M19-MEL > 100 µM | UO-31 > 100 µM | COLO 205 > 100 µM | SNB-78 > 100 µM | IGROV-1 > 100 µM | SK-MEL-28 > 100 µM | MOLT-4 > 100 µM | UACC-257 > 100 µM | DLD-1 > 100 µM | SNB-75 > 100 µM | HT-29 > 100 µM | HL-60 > 100 µM

COc1cc(C2[C@H]3C(=O)N(c4ccc(Cc5ccc(N6C(=O)[C@@H]7ON(c8ccccc8)C(c8cc(OC)c(OC)c(OC)c8)[C@@H]7C6=O)cc5)cc4)C(=O)[C@H]3ON2c2ccccc2)cc(OC)c1OC (some centres not stated)
inactive: K562 > 100 µM | SF-539 > 100 µM | SF-268 > 100 µM | CAKI-1 > 100 µM | 786-0 > 100 µM | M19-MEL > 100 µM | UO-31 > 100 µM | COLO 205 > 100 µM | SNB-78 > 100 µM | IGROV-1 > 100 µM | SK-MEL-28 > 100 µM | MOLT-4 > 100 µM | UACC-257 > 100 µM | DLD-1 > 100 µM | SNB-75 > 100 µM | HT-29 > 100 µM | HL-60 > 100 µM

COC(=O)CCC(=O)CC1CC(=O)C2CCCN12 (configuration not stated)
inactive: K562 > 100 µM | SF-539 > 100 µM | SF-268 > 100 µM | CAKI-1 > 100 µM | 786-0 > 100 µM | M19-MEL > 100 µM | UO-31 > 100 µM | COLO 205 > 100 µM | SNB-78 > 100 µM | IGROV-1 > 100 µM | SK-MEL-28 > 100 µM | MOLT-4 > 100 µM | UACC-257 > 100 µM | DLD-1 > 100 µM | SNB-75 > 100 µM | HT-29 > 100 µM | HL-60 > 100 µM

Nc1c(C(=O)NC23CC4CC(CC(C4)C2)C3)[n+]([O-])c2ccccc2[n+]1[O-]
inactive: K562 > 100 µM | SF-539 > 100 µM | SF-268 > 100 µM | CAKI-1 > 100 µM | 786-0 > 100 µM | M19-MEL > 100 µM | UO-31 > 100 µM | COLO 205 > 100 µM | SNB-78 > 100 µM | IGROV-1 > 100 µM | SK-MEL-28 > 100 µM | MOLT-4 > 100 µM | UACC-257 > 100 µM | DLD-1 > 100 µM | SNB-75 > 100 µM | HT-29 > 100 µM | HL-60 > 100 µM

CC1(C)CC(=O)C(CC2C(=O)CCCC2=O)C(=O)C1
inactive: K562 > 100 µM | SF-539 > 100 µM | SF-268 > 100 µM | CAKI-1 > 100 µM | 786-0 > 100 µM | M19-MEL > 100 µM | UO-31 > 100 µM | COLO 205 > 100 µM | SNB-78 > 100 µM | IGROV-1 > 100 µM | SK-MEL-28 > 100 µM | MOLT-4 > 100 µM | UACC-257 > 100 µM | DLD-1 > 100 µM | SNB-75 > 100 µM | HT-29 > 100 µM | HL-60 > 100 µM

COc1cc(-c2nnc3n2NC=C(C(=O)O)S3)cc(OC)c1OC
inactive: K562 > 43.1 µM | SF-539 > 42.8 µM | SF-268 > 76.9 µM | CAKI-1 > 100 µM | 786-0 > 58.7 µM | M19-MEL > 69.3 µM | UO-31 > 100 µM | COLO 205 > 57.5 µM | SNB-78 > 100 µM | IGROV-1 > 100 µM | SK-MEL-28 > 100 µM | MOLT-4 > 100 µM | UACC-257 > 100 µM | DLD-1 > 57.8 µM | SNB-75 > 100 µM | HT-29 > 100 µM | HL-60 > 61.4 µM

Cn1cnc(S[C@H]2[C@H]3C(=O)C=C4S[C@H]5C[C@]42C2=C(N5)C(=O)c4[nH]cc5c4C2=[N+]3CC5)c1C[C@H](N)C(=O)O
inactive: K562 17.3 µM | SF-539 16.5 µM | SF-268 12.1 µM | CAKI-1 27 µM | 786-0 19 µM | M19-MEL 8.73 µM | UO-31 17.5 µM | COLO 205 2.11 µM | SNB-78 20.9 µM | IGROV-1 16.4 µM | SK-MEL-28 16.8 µM | MOLT-4 12.7 µM | UACC-257 16.1 µM | DLD-1 17.2 µM | SNB-75 18.7 µM | HT-29 4.09 µM | HL-60 15.3 µM

CCCN1C(=O)CNC(=O)c2[nH]cnc21
inactive: K562 > 100 µM | SF-539 > 100 µM | SF-268 > 100 µM | CAKI-1 > 100 µM | 786-0 > 100 µM | M19-MEL > 100 µM | UO-31 > 100 µM | COLO 205 > 100 µM | SNB-78 > 100 µM | IGROV-1 > 100 µM | SK-MEL-28 > 100 µM | MOLT-4 > 100 µM | UACC-257 > 100 µM | DLD-1 > 100 µM | SNB-75 > 100 µM | HT-29 > 100 µM | HL-60 > 100 µM

From ChEMBL document CHEMBL1201862, “PubChem BioAssay data set” (2004)
